Results: PubChem BioAssay (NCI)
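All cell lines were grown in 96-well plates and treated with compound for 48 hours. TGI is the concentration that stops growth completely.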

Columns and labels:
Experiment in all cases: NCI tumour cell line growth inhibition, 48 h
[1] = system: HCT-116 colon
[2] = system: LOX IMVI melanoma
[3] = system: 786-0 renal
[4] = system: UACC-257 melanoma
[5] = system: K-562 leukemia
[6] = system: IGROV1 ovarian
[7] = system: DU-145 prostate
[8] = system: A498 renal
[9] = system: SK-OV-3 ovarian
[10] = system: OVCAR-3 ovarian
[11] = system: EKVX NSCLC
[12] = system: M14 melanoma
[13] = system: UO-31 renal
[14] = system: NCI-H226 lung
[15] = system: SR leukemia
[16] = system: HCT-15 colon
[17] = system: OVCAR-4 ovarian
[18] = system: SK-MEL-28 melanoma
[19] = system: HOP-62 NSCLC

Row | SMILES | TGI [1] [µM] | TGI [2] [µM] | TGI [3] [µM] | TGI [4] [µM] | TGI [5] [µM] | TGI [6] [µM] | TGI [7] [µM] | TGI [8] [µM] | TGI [9] [µM] | TGI [10] [µM] | TGI [11] [µM] | TGI [12] [µM] | TGI [13] [µM] | TGI [14] [µM] | TGI [15] [µM] | TGI [16] [µM] | TGI [17] [µM] | TGI [18] [µM] | TGI [19] [µM]
1 | CC(=O)n1nc(-c2ccccc2)n(/N=C/c2ccc([N+](=O)[O-])cc2)c1=O | > 100 | > 100 | > 100 | > 100 | > 100 | > 100 | > 100 | > 100 | > 100 | > 100 | > 100 | > 100 | > 100 | > 100 | > 100 | > 100 | > 100 | > 100 | 
2 | COc1nc(C(=O)NNC(=O)c2nc(OC)c3ccccc3c2-c2ccccc2)c(-c2ccccc2)c2ccccc12 | > 100 |  | > 100 | > 100 | > 100 | > 100 | > 100 | > 100 | > 100 | > 100 | > 100 | > 100 | > 100 | > 100 | > 100 | > 100 | > 100 | > 100 | > 100
3 | Oc1ccc2ccccc2c1/C=C/c1ccc2c(Br)cc(Br)c(O)c2n1 | 11.4 | 23 | 19.5 | 22.9 | 22.5 | 32.5 | 25.7 | 18.6 | 28.9 | 10 | 15.3 | 26.5 | 17.1 | 20.3 | > 40.4 | 17.5 | 33.4 | 31.8 | 34.5
4 | C[N+](C)([O-])CCC=C1c2ccccc2CCc2ccccc21 | > 100 | 2.7 | 19.2 | > 100 | 52 | 33.1 | 70.9 | 48.1 | > 100 | 58.8 | 59 | > 100 |  | 67.5 | 39.3 | 95 | 97 | 98.7 | 34.9
5 | CCOC(CCNCC(OCC)OCC)OCC | > 10 | > 10 | > 10 | > 10 | > 10 | > 10 | > 10 | > 10 | > 10 | > 10 | > 10 | > 10 |  | > 10 | > 10 | > 10 | > 10 | > 10 | > 10
6 | C[C@]12CC[C@H](O)CC1=CC[C@@H]1[C@@H]2CC[C@]2(C)C(=O)[C@@H](N3CCOCC3)C[C@@H]12 | > 100 | > 100 | > 100 | > 100 | > 100 | > 100 | > 100 | > 100 | > 100 | > 100 | > 100 | > 100 | > 100 | > 100 | > 100 | > 100 | > 100 | > 100 | > 100
7 | C=C(C)C(CC=C(C)C)CC12CC(CC=C(C)C)C(C)(C)C(CC=C(C)C)(C(=O)C(Cc3ccc(O)c(O)c3)=C1O)C2=O (stereo not drawn) | > 100 | > 100 | > 100 | > 100 | > 100 | > 100 | > 100 | > 100 | > 100 | > 100 | > 100 | > 100 | > 100 | > 100 | > 100 | > 100 | > 100 | > 100 | > 100
8 | O/N=C1/COC(C(F)(F)F)(C(F)(F)F)C1 | > 100 | > 100 | > 100 | > 100 |  | > 100 | > 100 | > 100 | > 100 | > 100 | > 100 | > 100 | > 100 | > 100 | > 100 | > 100 | > 100 | > 100 | > 100
9 | CNc1ccc(OC)cc1S(=O)(=O)c1ccccc1[N+](=O)[O-] | > 100 | > 100 | > 100 |  | > 100 | > 100 | > 100 | > 100 | > 100 | > 100 | > 100 | > 100 | > 100 | > 100 | > 100 | > 100 | > 100 | > 100 | > 100
10 | COCCOCc1nc(C#N)c(N)o1 | > 100 | > 100 | > 100 | > 100 | > 100 | > 100 | > 100 | > 100 | > 100 | > 100 | > 100 | > 100 | > 100 | > 100 | > 100 | > 100 | > 100 | > 100 | > 100
11 | CC(=O)OCc1cc(CCC(=O)NCCNc2c3ccccc3nc3ccccc23)cc(COC(C)=O)c1O[Si](C)(C)C(C)(C)C | 31.1 | 3.58 | 31.3 | 14.6 | 6.49 | 27.6 | 28.1 | 6.1 | 27.7 | 5.68 | 36.1 | 23.2 | 31.1 | 4.72 | 4.91 | 33.3 | 21.1 | 18.2 | 32.5
12 | CCOC(=O)C1=C(C)N(C)C23OC4(C(=O)OC)CC2c2ccccc2C1N3C4=O (stereo not drawn) | > 100 | > 100 | > 100 | > 100 | > 100 | > 100 | > 100 | > 100 | > 100 | > 100 | > 100 | > 100 | > 100 | > 100 | > 100 | > 100 | > 100 | > 100 | > 100
13 | Cc1nc2ccccc2c(=O)n1NC(=O)c1ccc(CS)cc1 | 16.9 | 0.401 | 23.6 | > 100 | 68.1 | 27.2 | 88.2 | 40.8 | 78 | 30.6 | 66.2 | 34.2 | 29.9 | 14.2 | 43.1 | > 100 | > 100 | 28.8 | 42.4
14 | CC(C)(C)c1cc(C(P(=O)(c2ccccc2)c2ccccc2)P(=O)(c2ccccc2)c2ccccc2)cc(C(C)(C)C)c1O | 3.23 | 4.04 | 7.23 | 4.18 | 9.93 | 5.74 | > 10 | 5.08 | > 10 | 5.41 | > 10 | 3.84 | 6.99 | 9.13 | > 8.37 | 6.96 | > 10 | 4.71 | 5.13
15 | CC(=O)c1c2c(cc3c1CC1(Cc4ccccc4C1=O)C3)CCC2 (stereo not drawn) | 66.6 | 55.7 | 95.9 | 64.6 | > 100 | > 100 | > 100 | > 100 | > 100 | 52.7 | 63.9 | 74.5 | > 100 | 72.4 | 47.9 | > 100 | > 100 | 68.4 | > 100
16 | NC(=O)C(N)Cc1ccc(O)cn1 (stereo not drawn) | > 100 | > 100 | > 100 | > 100 | > 100 | > 100 | > 100 | > 100 |  | > 100 | > 100 |  | > 100 | > 100 | > 100 | > 100 | > 100 | > 100 | > 100
17 | COc1ccc(C(=O)Sc2c(-c3ccccc3)c(=O)n(-c3ccccc3)c(=S)n2-c2ccccc2)cc1 | > 100 | > 100 | > 100 | > 100 | > 100 | 26.4 | > 100 | 44 | > 100 | > 100 | > 100 | > 100 |  | 58.7 | > 100 | > 100 | > 100 | > 100 | > 100
18 | Nc1nc(Cl)c(N)c(NC23CC4CC(CC(C4)C2)C3)n1 | 2.92 | > 100 | 3.03 | 7.16 | 6.87 | > 100 | 7.05 | 8.13 | 17.4 | 3.62 | 5.36 | 3.02 | 3.55 | 4.22 | > 22.2 | 13.3 | 4.21 | 3.6 | 4.3
19 | COc1cc(/C=C2\CCC(C)C3C2=NN(C(C)=O)C3c2cc(OC)c(OC)c(OC)c2)cc(OC)c1OC (stereo not drawn) | > 100 | > 100 | > 100 | > 100 | > 100 | 9.7 | > 100 | > 100 | > 100 | > 100 | > 100 | > 100 |  | > 100 | > 100 | > 100 | > 100 | > 51.2 | > 100
20 | N#CSC#Cc1ccc(C#CSC#N)cc1 | 38.7 | 34.5 | 33.5 | 33.8 | > 100 | 30.5 | 28.3 | 36.8 | 43 | 39.7 | 37.2 |  | 33.6 | 53.6 | > 100 | 38 | 36 | 57.2 | 39.3
21 | CCC(C)(C)/C(CC(O)(C(F)(F)F)C(F)(F)F)=N\O | > 100 | > 100 | > 100 |  | > 100 | > 100 | > 100 | > 100 | > 100 | > 100 | > 100 | > 100 | > 100 | > 100 | > 100 | > 100 | > 100 | > 100 | > 100
22 | CC(C)(Cc1ccccc1)NC1=NCCO1 | > 100 | > 100 | > 100 | > 100 | > 100 | > 100 | > 100 | > 100 | > 100 | > 100 | > 100 | > 100 | > 100 | > 100 | > 100 | > 100 | > 100 | > 100 | 
23 | C=C1C[C@@H]2O[C@H]3[C@H]4[C@@H](C[C@@H](C)[C@@H](OC(C)=O)[C@H]42)[C@@H](C)CO[C@@]3(C)[C@H](OC(C)=O)C[C@H]1O | > 100 | 38.7 | > 100 | > 100 | 63.7 | > 100 | > 100 | > 100 | > 100 | > 100 | > 100 | > 100 | > 100 | > 100 | > 100 | > 100 | > 100 | > 100 | 
24 | COc1ccc2nc3ccc(OC)cc3c(S(=O)CCCl)c2c1 (stereo not drawn) | 3.39 | 6.81 | 3.34 | 5.38 | > 23.6 | 6.87 | 4.66 | 34 | 40.2 | 6.24 | 25.6 | 15.3 |  | 33.9 | > 22.7 | > 20.6 | 16.4 | 12.4 | 36.8
25 | CC(=O)OCCn1cnc2nc(Nc3ccccc3)nc(Cl)c21 | > 100 | > 100 | > 100 | > 100 | > 100 | > 100 | > 100 | > 100 | > 100 | > 100 | > 100 |  |  | > 100 | > 100 | > 100 | > 100 | > 100 | > 100
